Values joined by “and” are separate entries in the source; they are usually repeats but may differ in a detail not shown here. Identical values can stand only once.
What was measured:
T lymphoma Jurkat cells = assay: Cytotoxicity assay (CellTiter-Glo, 72 h), Jurkat; type: cell-based; conditions: raw data (replicates)
Protocol: (§1) Jurkat cells were cultured in RPMI1640 medium supplemented with 10% foetal bovine serum, penicillin (50 U/ml), streptomycin (50 μg/ml), and Glutamax. SKOV-3 cells were cultured in DMEM medium supplemented with 10% fetal bovine serum, penicillin (50 U/ml), and streptomycin (50 μg/ml). MESO-1 cells were cultured in RPMI1640 medium supplemented with 10% fetal bovine serum, penicillin (50 U/ml), and streptomycin (50 μg/ml). All cell lines were seeded in a 384-well plate at a density of 1000 cells/well in 20 μl of media and incubated at 37 °C in a humidified incubator with 5% CO2. After 4 h, 2-fold dilution samples resolved in DMSO were added to the cell culture at the concentration of 0.5% (0.1 μl) and incubated for 72 h. Cell viabilities were measured using a CellTiter-Glo luminescent cell viability assay and EnVision multilabel plate reader.

[1] = Cytotoxicity assay (CellTiter-Glo, 72 h), Jurkat; type: cell-based; conditions: human, Jurkat cells (T lymphoma); for viability at 72 h, 9.53674e-05 uM: conc 9.53674e-5 uM; for viability at 72 h, 9.53674e-05 uM / viability at 72 h, 0.000190735 uM / viability at 72 h, 0.00038147 uM / viability at 72 h, 0.000762939 uM / viability at 72 h, 0.00152588 uM / viability at 72 h, 0.00305176 uM / viability at 72 h, 0.00610352 uM / viability at 72 h, 0.012207 uM / viability at 72 h, 0.0244141 uM / viability at 72 h, 0.0488281 uM / viability at 72 h, 0.0976562 uM / viability at 72 h, 0.195312 uM / viability at 72 h, 0.390625 uM / viability at 72 h, 0.78125 uM / viability at 72 h, 1.5625 uM / viability at 72 h, 3.125 uM / viability at 72 h, 6.25 uM / viability at 72 h, 12.5 uM / viability at 72 h, 25 uM / viability at 72 h, 50 uM: raw data (replicates); for viability at 72 h, 0.000190735 uM: conc 0.000190735 uM; for viability at 72 h, 0.00038147 uM: conc 0.00038147 uM; for viability at 72 h, 0.000762939 uM: conc 0.000762939 uM; for viability at 72 h, 0.00152588 uM: conc 0.00152588 uM; for viability at 72 h, 0.00305176 uM: conc 0.00305176 uM; for viability at 72 h, 0.00610352 uM: conc 0.00610352 uM; for viability at 72 h, 0.012207 uM: conc 0.012207 uM; for viability at 72 h, 0.0244141 uM: conc 0.0244141 uM; for viability at 72 h, 0.0488281 uM: conc 0.0488281 uM; for viability at 72 h, 0.0976562 uM: conc 0.0976562 uM; for viability at 72 h, 0.195312 uM: conc 0.195312 uM; for viability at 72 h, 0.390625 uM: conc 0.390625 uM; for viability at 72 h, 0.78125 uM: conc 0.78125 uM; for viability at 72 h, 1.5625 uM: conc 1.5625 uM; for viability at 72 h, 3.125 uM: conc 3.125 uM; for viability at 72 h, 6.25 uM: conc 6.25 uM; for viability at 72 h, 12.5 uM: conc 12.5 uM; for viability at 72 h, 25 uM: conc 25 uM; for viability at 72 h, 50 uM: conc 50 uM
Protocol: as §1

## COC1CC2CCC(C)C(O)(O2)C(=O)C(=O)N2CCCCC2C(=O)OC(C(C)CC2CCC(O)C(OC)C2)CCC(C)C=C(C)C(O)C(OC)C(=O)C(C)CC(C)C=CC=CC=C1C (stereo not drawn) [Compound 16, 32-desketorapamycin]
T lymphoma Jurkat cells; conc 9.53674e-5 uM
  Jurkat viability (%): 101.4% and 98.2%
T lymphoma Jurkat cells; conc 0.000190735 uM
  Jurkat viability (%): 92.4% and 84.6%
T lymphoma Jurkat cells; conc 0.00038147 uM
  Jurkat viability (%): 90.4% and 75.5%
T lymphoma Jurkat cells; conc 0.000762939 uM
  Jurkat viability (%): 69.2% and 63.8%
T lymphoma Jurkat cells; conc 0.00152588 uM
  Jurkat viability (%): 59.9% and 53.6%
T lymphoma Jurkat cells; conc 0.00305176 uM
  Jurkat viability (%): 41.7% and 44.0%
T lymphoma Jurkat cells; conc 0.00610352 uM
  Jurkat viability (%): 34.2% and 31.7%
T lymphoma Jurkat cells; conc 0.012207 uM
  Jurkat viability (%): 27.6% and 27.9%
T lymphoma Jurkat cells; conc 0.0244141 uM
  Jurkat viability (%): 27.8% and 26.9%
T lymphoma Jurkat cells; conc 0.0488281 uM
  Jurkat viability (%): 23.6% and 25.9%
T lymphoma Jurkat cells; conc 0.0976562 uM
  Jurkat viability (%): 24.4%
T lymphoma Jurkat cells; conc 0.195312 uM
  Jurkat viability (%): 26.3% and 22.8%
T lymphoma Jurkat cells; conc 0.390625 uM
  Jurkat viability (%): 23.3%
T lymphoma Jurkat cells; conc 0.78125 uM
  Jurkat viability (%): 22.7% and 23.1%
T lymphoma Jurkat cells; conc 1.5625 uM
  Jurkat viability (%): 22.0%
T lymphoma Jurkat cells; conc 3.125 uM
  Jurkat viability (%): 23.1% and 21.1%
T lymphoma Jurkat cells; conc 6.25 uM
  Jurkat viability (%): 20.5% and 21.0%
T lymphoma Jurkat cells; conc 12.5 uM
  Jurkat viability (%): 14.7% and 14.4%
T lymphoma Jurkat cells; conc 25 uM
  Jurkat viability (%): 2.4% and 2.3%
T lymphoma Jurkat cells; conc 50 uM
  Jurkat viability (%): 0.267% and 0.233%
[1]; 72 h, read-out: Plateau level of cell viability in the dose-response curve
  viability at 72 h: ~25%
[1]
  viability at 72 h, 9.53674e-05 uM: 104%
  viability at 72 h, 0.000190735 uM: 86.9%
  viability at 72 h, 0.00038147 uM: 91.3%
  viability at 72 h, 0.000762939 uM: 67.7%
  viability at 72 h, 0.00152588 uM: 56.5%
  viability at 72 h, 0.00305176 uM: 40.9%
  viability at 72 h, 0.00610352 uM: 34.9%
  viability at 72 h, 0.012207 uM: 28.9%
  viability at 72 h, 0.0244141 uM: 30.6%
  viability at 72 h, 0.0488281 uM: 25.7%
  viability at 72 h, 0.0976562 uM: 24%
  viability at 72 h, 0.195312 uM: 24.3%
  viability at 72 h, 0.390625 uM: 25.2%
  viability at 72 h, 0.78125 uM: 22.1%
  viability at 72 h, 1.5625 uM: 21.9%
  viability at 72 h, 3.125 uM: 20.3%
  viability at 72 h, 6.25 uM: 20.4%
  viability at 72 h, 12.5 uM: 11.9%
  viability at 72 h, 25 uM: 2%
  viability at 72 h, 50 uM: 0.248%

## CO[C@@H]1C[C@H](C[C@@H](C)[C@@H]2CC(=O)[C@H](C)/C=C(\C)[C@@H](O)[C@@H](OC)C(=O)[C@H](C)C[C@H](C)/C=C/C=C/C=C(\C)[C@H](O)C[C@@H]3CC[C@@H](C)[C@@](O)(O3)C(=O)C(=O)N3CCCC[C@H]3C(=O)O2)CC[C@H]1O [Compound 17, (16R)-16-O-demethyl rapamycin]
T lymphoma Jurkat cells; conc 9.53674e-5 uM
  Jurkat viability (%): 104.2% and 104.9%
T lymphoma Jurkat cells; conc 0.000190735 uM
  Jurkat viability (%): 98.3% and 107.4%
T lymphoma Jurkat cells; conc 0.00038147 uM
  Jurkat viability (%): 107.2% and 107.3%
T lymphoma Jurkat cells; conc 0.000762939 uM
  Jurkat viability (%): 99.4%
T lymphoma Jurkat cells; conc 0.00152588 uM
  Jurkat viability (%): 99.3% and 104.0%
T lymphoma Jurkat cells; conc 0.00305176 uM
  Jurkat viability (%): 97.0% and 104.1%
T lymphoma Jurkat cells; conc 0.00610352 uM
  Jurkat viability (%): 89.4% and 97.3%
T lymphoma Jurkat cells; conc 0.012207 uM
  Jurkat viability (%): 81.9% and 78.2%
T lymphoma Jurkat cells; conc 0.0244141 uM
  Jurkat viability (%): 72.3% and 67.5%
T lymphoma Jurkat cells; conc 0.0488281 uM
  Jurkat viability (%): 50.1% and 57.1%
T lymphoma Jurkat cells; conc 0.0976562 uM
  Jurkat viability (%): 39.4% and 41.6%
T lymphoma Jurkat cells; conc 0.195312 uM
  Jurkat viability (%): 33.7% and 37.9%
T lymphoma Jurkat cells; conc 0.390625 uM
  Jurkat viability (%): 35.4% and 34.2%
T lymphoma Jurkat cells; conc 0.78125 uM
  Jurkat viability (%): 31.2% and 32.6%
T lymphoma Jurkat cells; conc 1.5625 uM
  Jurkat viability (%): 28.2% and 33.2%
T lymphoma Jurkat cells; conc 3.125 uM
  Jurkat viability (%): 27.7% and 29.4%
T lymphoma Jurkat cells; conc 6.25 uM
  Jurkat viability (%): 29.5%
T lymphoma Jurkat cells; conc 12.5 uM
  Jurkat viability (%): 26.8%
T lymphoma Jurkat cells; conc 25 uM
  Jurkat viability (%): 30.6% and 29.0%
T lymphoma Jurkat cells; conc 50 uM
  Jurkat viability (%): 21.7% and 20.3%
[1]
  viability at 72 h, 9.53674e-05 uM: 98.1%
  viability at 72 h, 0.000190735 uM: 101%
  viability at 72 h, 0.00038147 uM: 107%
  viability at 72 h, 0.000762939 uM: 100%
  viability at 72 h, 0.00152588 uM: 106%
  viability at 72 h, 0.00305176 uM: 95.3%
  viability at 72 h, 0.00610352 uM: 96.3%
  viability at 72 h, 0.012207 uM: 74.7%
  viability at 72 h, 0.0244141 uM: 79%
  viability at 72 h, 0.0488281 uM: 40%
  viability at 72 h, 0.0976562 uM: 39.6%
  viability at 72 h, 0.195312 uM: 36.3%
  viability at 72 h, 0.390625 uM: 32.4%
  viability at 72 h, 0.78125 uM: 32.4%
  viability at 72 h, 1.5625 uM: 29.2%
  viability at 72 h, 3.125 uM: 28.8%
  viability at 72 h, 6.25 uM: 28.5%
  viability at 72 h, 12.5 uM: 30.5%
  viability at 72 h, 25 uM: 28.8%
  viability at 72 h, 50 uM: 21.6%

From PMC7419507, “In vitro Cas9-assisted editing of modular polyketide synthase genes to produce desired natural product derivatives” (Nature Communications, 2020)
